The text below walks through data of PubChem BioAssay (NCI).

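Exposure lasted 48 hours, with cells grown in 96-well plates and compounds tested at five concentrations. GI50 is the concentration that inhibits growth by half. TGI: concentration producing complete growth inhibition.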

What all share (assay): NCI tumour cell line growth inhibition, 48 h
Assay [1] deals with 786-0 renal.
In assay [2] the test system is ACHN renal.
The subject of assay [3] is HCT-116 colon.
For assay [4], the system named is RPMI-8226 leukemia.
Assay [5] deals with SF-539 CNS.
Assay [6] relates to SK-MEL-28 melanoma.
The subject of assay [7] is SK-MEL-5 melanoma.
Assay [8] has as its system U251 CNS.
Assay [9] concerns A498 renal.

Turning to `COc1cc2c(Cc3cc(OCc4ccccc4)ccc3N)nccc2c(OC)c1OC`, the TGI in assay [1], in assay [2], in assay [3], in assay [4], in assay [5] and in [6] was above 10 µM in each case. In addition, the TGI in assay [7] and in assay [8] was above 10 µM in each case.

Take `CC1=C(C(=O)Nc2ccccc2C)C(c2ccccc2C)C(C(=O)Nc2ccccc2C)=C(C)N1`: the TGI in [1] is 34.5 µM; in assay [9], above 100 µM; in assay [2], 29.5 µM; in assay [3] it was 50.4 µM; in assay [4] it was 81.3 µM; in assay [5], above 10 µM. In addition, the TGI in [6] came to 42.5 µM; in assay [8], 40.3 µM.

Consider `COC(=O)C1C(/C=C/c2ccoc2)ON2CCC[C@@H]12` (some centres undefined), for which the TGI in [1], in [2], in [5], in [6] and in assay [8] was above 100 µM throughout.

As for `O=c1[nH]cnc2c1ncn2CCCCO`, the TGI in [1], in [9], in [2], in assay [3], in [4] and in assay [5] was above 100 µM throughout. The TGI in [6] and in [7] was above 100 µM each time.

As to `NS(=O)(=O)c1ccc(NC(=O)c2cccc3c(Nc4ccc(S(N)(=O)=O)cc4)c4ccccc4nc23)cc1`, the TGI in assay [1] is above 100 µM; in assay [9], above 100 µM; in assay [2], above 100 µM; in [3], above 100 µM; in assay [4], 39.1 µM; in assay [5] it was above 100 µM. In addition, the TGI in assay [6], in assay [7] and in assay [8] was above 100 µM in each case.

In the case of `O=S(=O)(N/N=C/c1ccc(Cl)cc1Cl)c1ccccc1`, the TGI in assay [1], in [9], in assay [2], in assay [3], in [4] and in [5] was above 100 µM throughout. Further, the TGI in assay [6], in [7] and in assay [8] was above 100 µM throughout.

Consider `COc1ccc(/C=N\O[Si](C)(C)C(C)(C)C)cc1O[Si](C)(C)C(C)(C)C`, for which the TGI amounted to 30.8 µM in [1]; 33.2 µM in assay [9]; 33.3 µM in [2]; 29.1 µM in assay [3]; 39 µM in [4]; 37.9 µM in [5]. Moreover, the TGI in assay [7] was 33.9 µM; in assay [8] it was 36 µM.

As to `O=c1cc(-c2ccc(O)cc2)oc2cc(O)cc(O)c12`, the TGI in [1] was above 100 µM; in [2], 30.3 µM; in [3], above 100 µM; in [4], above 100 µM; in [6], 59.1 µM; in assay [7], 87.2 µM. In assay [8], this molecule registered a TGI above 100 µM.

On to `CCOC(=O)C1Oc2ccc([N+](=O)[O-])cc2C1(C)O` (centres undefined), for which the TGI in assay [1], in [9], in assay [2], in assay [4], in assay [5] and in assay [6] was above 100 µM each time. The TGI in [7] and in assay [8] was above 100 µM each time.

With `CCOC(=O)/C=C1\Oc2ccccc2C1(C)O` (centres undefined), the TGI in assay [1], in [9], in assay [2], in assay [3], in assay [4] and in [6] was above 100 µM throughout. The TGI in assay [7] and in [8] was above 100 µM throughout.

In the case of `Cc1cccc(N=C2NC(=O)C(CC(=O)Nc3ccccc3Cl)S2)c1` (centres undefined), the TGI in [1], in assay [9], in assay [2], in assay [3], in [4] and in [5] was above 100 µM in each case. In addition, the TGI in [6] and in [7] was above 100 µM in each case.

As to `O=C(CC(=O)c1ccccc1)C(=O)NC12CC3CC(CC(C3)C1)C2`, the TGI is 99.7 µM in [1]; above 100 µM in assay [9]; above 100 µM in assay [2]; above 100 µM in assay [3]; above 66 µM in [4]; above 100 µM in assay [5]. For the same molecule, the TGI in assay [6], in assay [7] and in [8] was above 100 µM in each case.

Take `COc1ccc(/C(C#N)=C(/N)SCc2ccccc2Cl)cc1`: the TGI in [1] was 32.7 µM; in [9] it was 42.3 µM; in [2] it was above 10 µM; in assay [3], 32.8 µM; in assay [4], above 100 µM; in assay [5], 32.5 µM. The TGI in assay [6] is 35.8 µM; in assay [8] it was 32.6 µM.

As to `COc1ccc(CN=C(N)N=C(N)N)cc1OC`, the GI50 is above 1000 µM in [1]; 151 µM in [9]; above 1000 µM in assay [2]; above 1000 µM in [3]; above 1000 µM in [5]; 960 µM in assay [6]. Also, the GI50 was 223 µM in [7] and 398 µM in assay [8]. For the same molecule, the TGI in assay [1], in assay [9], in assay [2], in assay [3], in assay [5] and in assay [6] was above 1000 µM in each case. The TGI in assay [7] and in assay [8] was above 1000 µM throughout.

Consider `O=C(O)c1cc(=O)c2cc(C(=O)c3cccs3)c(Cl)c(Cl)c2o1`, for which the TGI in [1], in [9], in assay [2], in assay [4], in [6] and in assay [7] was above 100 µM each time. The molecule further had a TGI in assay [8] above 100 µM.

For the molecule `CCCCCCCCCCCCCCCCCc1nnc(N)o1`, the TGI in [1], in assay [2], in [3], in assay [4], in assay [5] and in assay [6] was above 100 µM each time. In assay [8], this molecule had a TGI above 100 µM.

Regarding `OC1c2ccccc2C2C(O)c3ccccc3C12` (centres undefined), the TGI in [1], in [2], in assay [4], in [5], in assay [6] and in assay [7] was above 100 µM throughout. This molecule also displayed a TGI in [8] above 100 µM.

`Nc1ccc(C2=Nc3ccccc3SC(c3ccccc3O)C2)cc1` (centres undefined): the TGI in [1] is 73.6 µM; in assay [9] it was 74.1 µM; in [2], above 100 µM; in assay [4] it was 49.7 µM; in assay [5], above 100 µM; in assay [6], above 100 µM. Also, the TGI in assay [7] and in assay [8] was above 100 µM throughout.

In the case of `O=c1[nH]c2c(c3ccccc13)CCc1ccccc1-2`, the TGI in assay [1], in assay [2], in assay [3], in [4], in assay [5] and in [6] was above 100 µM each time. For the same molecule, the TGI in assay [7] and in assay [8] was above 100 µM in each case.

Consider `COC(=O)C1=C(c2ccc(Cl)cc2)C(O)N=C(NN)N1` (centres undefined), for which the TGI in assay [1], in assay [2], in [3], in assay [4], in assay [5] and in assay [6] was above 100 µM each time. The TGI in assay [7] and in assay [8] was above 100 µM throughout.

Regarding `CC1CC(=O)c2c(ccc3c2C(=O)c2cccc(O)c2C3=O)C1` (centres undefined), the TGI in assay [1] worked out at 21.2 µM; in assay [9], 27.5 µM; in assay [3] it was 20.1 µM; in [4], 39.1 µM; in assay [5], 29.5 µM; in assay [6], 26.6 µM. Further, the TGI in assay [7] was 8.48 µM; in [8] it was 26.5 µM.

As for `NC(=O)N/N=C(\CCC(=O)N(Cc1ccccc1)Cc1ccccc1)CC(=O)c1ccc(F)cc1`, the TGI is 87.4 µM in assay [1]; above 100 µM in assay [2]; above 100 µM in [3]; 62.4 µM in [5]; above 100 µM in assay [6]; above 100 µM in assay [7]. The molecule also showed a TGI in [8] above 100 µM.

Turning to `CCOC(=O)c1cn(CC)c2cc3c(cc2c1=O)SCS3`, the TGI in assay [1], in assay [2], in assay [4], in assay [5], in [6] and in assay [7] was above 100 µM in each case. This molecule also had a TGI in assay [8] above 100 µM.

Consider `CC(=O)O[C@H]1CC[C@@]2(C)C(=C/C(=N\[N+](=O)[O-])[C@H]3C4CCC([C@H](C)CCCC(C)C)[C@@]4(C)CCC32)C1` (some centres undefined), for which the TGI in assay [1], in assay [9], in assay [2], in assay [3], in [4] and in assay [5] was above 100 µM throughout. Further, the TGI in assay [6] and in [7] was above 100 µM in each case.
